{"source": "patent US20220306617A1", "about": "“SUBSTITUTED 1,3-PHENYL HETEROARYL DERIVATIVES AND THEIR USE IN THE TREATMENT OF DISEASE” (NOVARTIS AG, priority 2019, published 2022)", "biological_target": "T1, abc isoform of human TMEM16A channel expressed in CHO cells (Homo sapiens, UniProt Q5XXA6, DEL476-501)", "T1 construct": "expressed in transfected cells; host or cells: CHO cells, doxycycline-inducible expression under Blasticidin/Zeocin selection", "T1 sequence (Q5XXA6 with tags, fused parts or gaps isoform Q5XXA6-5 DEL539-564)": "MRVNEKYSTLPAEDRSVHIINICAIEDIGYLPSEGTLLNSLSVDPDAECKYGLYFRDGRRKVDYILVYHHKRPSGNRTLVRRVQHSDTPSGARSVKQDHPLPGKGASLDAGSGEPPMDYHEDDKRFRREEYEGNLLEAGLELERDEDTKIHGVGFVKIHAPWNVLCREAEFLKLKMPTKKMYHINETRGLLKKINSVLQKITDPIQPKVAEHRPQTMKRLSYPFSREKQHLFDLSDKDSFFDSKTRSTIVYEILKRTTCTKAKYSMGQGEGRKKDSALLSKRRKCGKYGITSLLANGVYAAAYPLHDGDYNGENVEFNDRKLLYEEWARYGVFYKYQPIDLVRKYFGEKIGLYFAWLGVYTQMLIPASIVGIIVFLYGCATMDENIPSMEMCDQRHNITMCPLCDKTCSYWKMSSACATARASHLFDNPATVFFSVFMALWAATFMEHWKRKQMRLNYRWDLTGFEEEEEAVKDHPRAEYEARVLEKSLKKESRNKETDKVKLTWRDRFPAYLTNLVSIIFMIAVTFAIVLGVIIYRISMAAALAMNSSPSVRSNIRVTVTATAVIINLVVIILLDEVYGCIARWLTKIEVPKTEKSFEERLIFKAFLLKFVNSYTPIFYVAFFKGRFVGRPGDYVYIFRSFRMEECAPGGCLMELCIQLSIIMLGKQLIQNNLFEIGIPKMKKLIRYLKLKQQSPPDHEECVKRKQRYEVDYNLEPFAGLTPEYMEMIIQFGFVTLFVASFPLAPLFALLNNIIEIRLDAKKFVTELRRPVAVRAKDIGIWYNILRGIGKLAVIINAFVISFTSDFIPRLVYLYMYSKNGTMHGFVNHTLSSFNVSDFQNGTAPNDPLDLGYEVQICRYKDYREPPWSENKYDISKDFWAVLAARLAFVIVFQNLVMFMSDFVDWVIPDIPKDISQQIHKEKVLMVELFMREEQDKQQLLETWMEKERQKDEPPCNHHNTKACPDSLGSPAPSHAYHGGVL", "test": "Automated patch clamping (QPatch) assay to measure TMEM16A activity in whole-cell", "assay_type": "cell-based", "conditions": "for EC50: CHO cells expressing human TMEM16A (abc), whole-cell automated patch clamp, Hill fit, read-out: TMEM16A QPATCH assay EC50 V3 EC50; for Emax: CHO, read-out: TMEM16A QPATCH assay EC50 V3 Assay Window (% TMEM16A max activation); for Emax / TMEM16A QPATCH assay EC50 V3 Assay Window (% TMEM16A max activation): maximum current at highest dose relative to reference potentiator at maximal concentration (upper limit) and vehicle (lower limit)", "method_in_brief": "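Whole-cell currents were recorded by planar automated patch clamp from induced CHO cells (doxycycline 1 μg/mL, 18-24 h), using a −70 mV hold, +70 mV step and −90 to +70 mV ramp. Values: Hill-fitted EC50, and activation scaled between vehicle current and reference-potentiator maximum; 0.3% DMSO final.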", "note": "Counter-ions that a name gives are not always drawn."}
{"smiles": "CCC(CC)NC(=O)c1cnc(-c2cccc(-c3cc(C(=O)N[C@@H](C)C4CC4)n(CCO)n3)c2)o1", "note": "[Example 9.8, (S)-2-(3-(5-((1-cyclopropylethyl)carbamoyl)-1-(2-hydroxyethyl)-1 H-pyrazol-3-yl)phenyl)-N-(pentan-3-yl)oxazole-5-carboxamide]", "values": [{"measurement": "EC50", "result": 0.18, "unit": "µM"}, {"measurement": "Emax", "result": 88, "unit": "%"}]}
{"smiles": "CCC(CC)NC(=O)c1cnc(-c2cccc(-c3cc(C(=O)N4CCC(C(=O)OC)C4)n[nH]3)c2)o1", "note": "(centres unmarked) [Example 3.30, Methyl 1-(5-(3-(5-(Pentan-3-Ylcarbamoyl)Oxazol-2-Yl)Phenyl)-1H-Pyrazole-3-Carbonyl)Pyrrolidine-3-Carboxylate]", "values": [{"measurement": "EC50", "result": 0.75, "unit": "µM"}, {"measurement": "Emax", "result": 90, "unit": "%"}]}
{"smiles": "CCC(CC)NC(=O)c1cnc(-c2cccc(-c3cc(C(=O)N[C@H](C)C4CC4)n(CCO)n3)c2)o1", "note": "[Example 5.1, (R)-2-(3-(5-((1-Cyclopropylethyl)Carbamoyl)-1-(2-Hydroxyethyl)-1H-Pyrazol-3-Yl)Phenyl)-N-(Pentan-3-Yl)Oxazole-5-Carboxamide]", "values": [{"measurement": "EC50", "result": 0.32, "unit": "µM"}, {"measurement": "Emax", "result": 125, "unit": "%"}]}
{"smiles": "CCC(CC)NC(=O)c1cnc(-c2cccc(-c3nc(C(=O)NC(CC)CC)n(CCO)n3)c2)o1", "note": "[Example 16.0, 2-(3-(1-(2-Hydroxyethyl)-5-(Pentan-3-Ylcarbamoyl)-1H-1,2,4-Triazol-3-Yl)Phenyl)-N-(Pentan-3-Yl)Oxazole-5-Carboxamide]", "values": [{"measurement": "EC50", "result": 0.13, "unit": "µM"}, {"measurement": "Emax", "result": 177, "unit": "%"}]}
{"smiles": "C[C@H](NC(=O)c1cnc(-c2cccc(-c3cc(C(=O)N[C@@H](C)C4CC4)n(CC(C)(C)O)n3)c2)o1)C1CC1", "note": "[Example 6.3, N-((S)-1-Cyclopropylethyl)-2-(3-(5-(((S)-1-Cyclopropylethyl)Carbamoyl)-1-(2-Hydroxy-2-Methylpropyl)-1H-Pyrazol-3-Yl)Phenyl)Oxazole-5-Carboxamide]", "values": [{"measurement": "EC50", "result": 0.25, "unit": "µM"}, {"measurement": "Emax", "result": 73, "unit": "%"}]}
{"smiles": "C[C@H](NC(=O)c1cc(-c2cccc(-c3ncc(C(=O)NC(C4CC4)C4CC4)o3)c2)nn1CC(O)C(F)(F)F)C1CC1", "note": "(single isomer, unassigned) [Example 9.2 (i)]", "values": [{"measurement": "EC50", "result": 0.13, "unit": "µM"}, {"measurement": "TMEM16A QPATCH assay EC50 V3 Assay Window (% TMEM16A max activation)", "result": 115, "unit": "%"}]}
{"smiles": "CCC(CC)NC(=O)c1cnc(-c2cccc(-c3cc(C(=O)N[C@H](C(=O)OCc4ccccc4)C(C)C)n[nH]3)c2)o1", "note": "[Example 3.3, (S)-Benzyl 3-Methyl-2-(5-(3-(5-(Pentan-3-Ylcarbamoyl)Oxazol-2-Yl)Phenyl)-1 H-Pyrazole-3-Carboxamido)Butanoate]", "values": [{"measurement": "EC50", "result": 0.18, "unit": "µM"}, {"measurement": "Emax", "result": 133, "unit": "%"}]}
{"smiles": "CCC(CC)NC(=O)c1cnc(-c2cccc(-c3cc(C(=O)N[C@@H](C#N)CC)n[nH]3)c2)o1", "note": "(single isomer, unassigned) [Example 3.26, (R)-2-(3-(3-((1-Cyanopropyl)Carbamoyl)-1H-Pyrazol-5-Yl)Phenyl)-N-(Pentan-3-Yl)Oxazole-5-Carboxamide or (S)-2-(3-(3-((1-Cyanopropyl)Carbamoyl)-1H-Pyrazol-5-Yl)Phenyl)-N-(Pentan-3-Yl)Oxazole-5-Carboxamide]", "values": [{"measurement": "EC50", "result": 0.24, "unit": "µM"}, {"measurement": "TMEM16A QPATCH assay EC50 V3 Assay Window (% TMEM16A max activation)", "result": 109, "unit": "%"}]}
{"smiles": "CCOC(=O)Cn1nc(-c2cccc(-c3ncc(C(=O)NC(CC)CC)o3)c2)nc1C(=O)NC(CC)CC", "note": "[Example 15.2, Ethyl 2-(5-(Pentan-3-Ylcarbamoyl)-3-(3-(5-(Pentan-3-Ylcarbamoyl)Oxazol-2-Yl)Phenyl)-1 H-1,2,4-Triazol-1-Yl)Acetate]", "values": [{"measurement": "EC50", "result": 0.08, "unit": "µM"}, {"measurement": "Emax", "result": 80, "unit": "%"}]}
{"smiles": "CCC(CC)NC(=O)c1cnc(-c2cccc(-c3nc(C(=O)NC(CC)CC)n(CCNCc4ccccc4)n3)c2)o1", "note": "[Example 15.6, 2-(3-(1-(2-(Benzylamino)Ethyl)-5-(Pentan-3-Ylcarbamoyl)-1H-1,2,4-Triazol-3-Yl)Phenyl)-N-(Pentan-3-Yl)Oxazole-5-Carboxamide]", "values": [{"measurement": "EC50", "result": 0.33, "unit": "µM"}, {"measurement": "Emax", "result": 154, "unit": "%"}]}
{"smiles": "CCOC(=O)[C@@H](NC(=O)c1cnc(-c2cccc(-c3cc(C(=O)N[C@@H](C(=O)OC)C(C)C)[nH]n3)c2)o1)C(C)C", "note": "[Example 2.0, (S)-Ethyl 2-(2-(3-(5-(((R)-1-Methoxy-3-Methyl-1-Oxobutan-2-Yl)Carbamoyl)-1 H-Pyrazol-3-Yl)Phenyl)Oxazole-5-Carboxamido)-3-Methylbutanoate]", "values": [{"measurement": "EC50", "result": 0.14, "unit": "µM"}, {"measurement": "Emax", "result": 87, "unit": "%"}]}
{"smiles": "CCOC(=O)[C@@H](NC(=O)c1cnc(-c2cccc(-c3nnc(C(=O)NC(C4CC4)C4CC4)[nH]3)c2)o1)C(C)C", "note": "[Example 12.6, (S)-Ethyl 2-(2-(3-(5-((Dicyclopropylmethyl)Carbamoyl)-4H-1,2,4-Triazol-3-Yl)Phenyl)Oxazole-5-Carboxamido)-3-Methylbutanoate]", "values": [{"measurement": "EC50", "result": 0.02, "unit": "µM"}, {"measurement": "Emax", "result": 142, "unit": "%"}]}
{"smiles": "CCC(CC)NC(=O)c1cc(-c2cccc(-c3ncc(C(=O)NC(C)(C)C)o3)c2)[nH]n1", "note": "[Example 1.13, N-(Tert-Butyl)-2-(3-(3-(Pentan-3-Ylcarbamoyl)-1H-Pyrazol-5-yl)Phenyl)Oxazole-5-Carboxamide]", "values": [{"measurement": "EC50", "result": 0.4, "unit": "µM"}, {"measurement": "Emax", "result": 112, "unit": "%"}]}
{"smiles": "CCC(CC)NC(=O)c1cc(-c2cccc(-c3ncc(C(=O)NCC(=O)OC(C)C)o3)c2)[nH]n1", "note": "[Example 1.32, Isopropyl 2-(2-(3-(3-(Pentan-3-Ylcarbamoyl)-1 H-Pyrazol-5-yl)Phenyl)Oxazole-5-Carboxamido)Acetate]", "values": [{"measurement": "EC50", "result": 0.88, "unit": "µM"}, {"measurement": "Emax", "result": 77, "unit": "%"}]}
{"smiles": "CCOC(=O)[C@@H](NC(=O)c1cnc(-c2cccc(-c3cc(C(=O)NC(C(F)F)C4CC4)[nH]n3)c2)o1)C(C)C", "note": "(stereo partly drawn) [Example 2.4, (2S)-Ethyl 2-(2-(3-(5-((1-Cyclopropyl-2,2-Difluoroethyl)Carbamoyl)-1H-Pyrazol-3-Yl)Phenyl)Oxazole-5-Carboxamido)-3-Methylbutanoate]", "values": [{"measurement": "EC50", "result": 0.02, "unit": "µM"}, {"measurement": "Emax", "result": 99, "unit": "%"}]}
{"smiles": "CCC(CC)NC(=O)c1cnc(-c2cccc(-c3nc(C(=O)NC(CC)CC)n(CCN(C)C)n3)c2)o1", "note": "[Example 15.4, 2-(3-(1-(2-(Dimethylamino)Ethyl)-5-(Pentan-3-Ylcarbamoyl)-1H-1,2,4-Triazol-3-Yl)Phenyl)-N-(Pentan-3-Yl)Oxazole-5-Carboxamide]", "values": [{"measurement": "EC50", "result": 1, "unit": "µM"}, {"measurement": "Emax", "result": 61, "unit": "%"}]}
{"smiles": "CCOC(=O)[C@H](CC(C)C)NC(=O)c1cc(-c2cccc(-c3ncc(C(=O)NC(CC)CC)o3)c2)[nH]n1", "note": "[Example 3.60, (S)-Ethyl 4-Methyl-2-(5-(3-(5-(Pentan-3-Ylcarbamoyl)Oxazol-2-Yl)Phenyl)-1H-Pyrazole-3-Carboxamido)Pentanoate Trifluoroacetate]", "values": [{"measurement": "EC50", "result": 0.16, "unit": "µM"}, {"measurement": "Emax", "result": 150, "unit": "%"}]}
{"smiles": "CCC(CC)NC(=O)c1cnc(-c2cccc(-c3cc(C(=O)N[C@@H](C)C(C)(C)C)n[nH]3)c2)o1", "note": "[Example 3.35, (S)-2-(3-(3-((3,3-Dimethylbutan-2-Yl)Carbamoyl)-1H-Pyrazol-5-Yl)Phenyl)-N-(Pentan-3-Yl)Oxazole-5-Carboxamide Trifluoroacetate]", "values": [{"measurement": "EC50", "result": 0.12, "unit": "µM"}, {"measurement": "Emax", "result": 69, "unit": "%"}]}
{"smiles": "CCC(CC)NC(=O)c1cc(-c2cccc(-c3ncc(C(=O)N[C@@H](C(=O)OC)c4ccccc4)o3)c2)[nH]n1", "note": "[Example 1.39, (R)-Methyl 2-(2-(3-(3-(Pentan-3-Ylcarbamoyl)-1H-Pyrazol-5-yl)Phenyl)Oxazole-5-Carboxamido)-2-Phenylacetate]", "values": [{"measurement": "EC50", "result": 0.88, "unit": "µM"}, {"measurement": "Emax", "result": 66, "unit": "%"}]}
{"smiles": "CCC(CC)NC(=O)c1cc(-c2cccc(-c3ncc(C(=O)N[C@@H](C)CC)o3)c2)[nH]n1", "note": "[Example 1.45, (S)-N-(Sec-Butyl)-2-(3-(3-(Pentan-3-Ylcarbamoyl)-1H-Pyrazol-5-Yl)Phenyl)Oxazole-5-Carboxamide]", "values": [{"measurement": "EC50", "result": 0.71, "unit": "µM"}, {"measurement": "Emax", "result": 75, "unit": "%"}]}
{"smiles": "CCC(CC)NC(=O)c1cc(-c2cccc(-c3ncc(C(=O)N[C@H](C(=O)OC(C)(C)C)C(C)C)o3)c2)[nH]n1", "note": "[Example 1.9, (S)-Tert-Butyl 3-Methyl-2-(2-(3-(3-(Pentan-3-Ylcarbamoyl)-1H-Pyrazol-5-yl)Phenyl)Oxazole-5-Carboxamido)Butanoate]", "values": [{"measurement": "EC50", "result": 0.03, "unit": "µM"}, {"measurement": "Emax", "result": 146, "unit": "%"}]}
{"smiles": "COC(=O)[C@@H](CSC)NC(=O)c1cnc(-c2cccc(-c3cc(C(=O)N[C@@H](C)C4CC4)n[nH]3)c2)o1", "note": "[Example 1.25, (S)-Methyl 2-(2-(3-(3-(((S)-1-Cyclopropylethyl)Carbamoyl)-1H-Pyrazol-5-yl)Phenyl)Oxazole-5-Carboxamido)-3-(Methylthio)Propanoate]", "values": [{"measurement": "EC50", "result": 0.26, "unit": "µM"}, {"measurement": "Emax", "result": 83, "unit": "%"}]}
